In US20260217683A1, “PYRIDAZINONE HETEROCYCLIC COMPOUND MYOSIN II INHIBITOR AND USE THEREOF” (Xizang Haisco Pharmaceutical Co., Ltd., priority 2023, published 2026):
Read-outs that look alike come from different tables or passages of the source.

Columns and labels:
Format in all cases: biochemical
[1] = tested on: rabbit skeletal muscle myosin; assay: Inhibition of hydrolysis of ATP by rabbit skeletal muscle myosin
Protocol: The purpose of this test was to evaluate the ability of compounds to inhibit the hydrolysis of ATP by rabbit skeletal muscle myosin. The determination method was as follows:
• Preformed F-actin filaments (#AKF99-B, Cytoskeleton) were diluted to 1 mg/mL with Reaction buffer (25 mM Tris-HCL, pH 7.5+35 mM KCl+0.1 mM EGTA+1 mM MgCl2); • Rabbit myosin (#MYO2-A, Cytoskeleton) was diluted to 0.1 mg/mL with Resuspension buffer (15 mM Tris-HCL, PH7.5+0.2 M KCl+1 mM MgCl2); • ATP (#BSA04-001, Cytoskeleton) was diluted to 3 mM working solution with 15 mM Tris-HCL (PH=7.5);
• adding 13 μL reaction buffer+12 μL F-actin to actin control wells; • adding 10 μL reaction buffer+12 μL F-actin+3 μL myosin II to positive control wells; • adding 10 μL of compound working solution+12 μL of F-actin+3 μL of myosin II to the compound wells; • adding 5 μL of ATP working solution to all test wells to start the reaction, and simultaneously adding a sample to the Pi standard wells according to the instruction (#BK054, Cytoskeleton); • gently mixing and accurately incubating at 37° C. for 60 min; • adding 70 μL of CytoPhos Reagent (#BK054, Cytoskeleton) to each well and incubating for 10 min to stop the reaction.
• the OD value of each well was detected at 650 nm using the endpoint method. The standard curve was fitted according to Pi concentration and OD value, and the Pi concentration of each test well was obtained. Inhibition (%)=(Pi positive control well-Pi test well)/Pi positive control well*100%. The Inhibition %-[…] curve was fitted with Graphpad Prism 8 software, and IC50 was calculated.

[2] = biological target: T1, cardiac myosin SII (Bos taurus, UniProt Q9BE39); assay: Inhibition of hydrolysis of ATP by cardiac myosin SII; details: 100 μM compound
T1 construct: purchased Cytoskeleton #MYO3-A
Protocol: The purpose of this test was to evaluate the ability of compounds to inhibit the hydrolysis of ATP by cardiac myosin SII. The determination method was as follows: • 1. Solution formulation: • Preformed F-actin filaments (#AKF99-B, Cytoskeleton) were diluted to 1 mg/mL with Reaction buffer (15 mM Tris-HCL. PH7.5+10 mM KCl+0.1 mM EGTA+2 mM MgCl2); • Cardiac Muscle myosin (#MYO3-A, Cytoskeleton) was diluted to 1 mg/mL with Resuspension buffer (15 mM Tris-HCL, PH7.5+0.2M KCl+1 mM MgCl2); • ATP (#BSA04-001, Cytoskeleton) was diluted to 3 mM working solution with 15 mM Tris-HCL (PH=7.5); • 2. Formulation of working solution of compounds: the final compound concentration was 100 μM • 3. Experimental steps: • adding 10 μL of compound working solution+12 μL of Preformed F-actin filaments+3 μL of Cardiac Muscle myosin to the compound wells; • adding 10 μL of reaction buffer containing DMSO+12 μL Preformed F-actin filaments +3 μL Cardiac Muscle myosin to positive control wells; • adding 10 μL of reaction buffer containing DMSO+12 μL Preformed F-actin filaments +3 μL Resuspension buffer to negative control wells; • adding 5 μL of 3 mM ATP working solution to all test wells to start the reaction, gently mixing and incubating at 37° C. for 2 h; • after the reaction was completed, taking 6 μL of reaction liquid, adding 24 μL of reaction buffer for 5-fold dilution, then detecting the content of the product Pi with a phosphate kit (#BK054, Cytoskeleton); • adding a sample to Pi standard wells according to the instructions; • adding 70 μL of CytoPhos Reagent (#BK054, Cytoskeleton) to each well and incubating at room temperature for 10 min before detection. • 4. Detection: • the OD value of each well was detected at 650 nm. The standard curve was fitted according to Pi standard concentration and OD value, and the Pi concentration of each test well was obtained. Inhibition (%)=(positive control well−test well)/positive control well*100%.

[3] = biological target: T2, smooth muscle myosin S1 (Gallus gallus, UniProt P10587); assay: Inhibition of hydrolysis of ATP by smooth muscle myosin S1 fragments
T2 construct: purchased Cytoskeleton #CS-MYS05
Protocol: The purpose of this test was to evaluate the ability of compounds to inhibit the hydrolysis of ATP by smooth muscle myosin Si fragments. The determination method was as follows: • 1. Solution formulation • F-actin polymer: Cardiac Actin powder (#CS-AD99, Cytoskeleton) was dissolved in a buffer (5 mM Pipes-KOH solution, PH=7.0, containing 100 μM ATP and 500 μM DTT) to form a 2 mg/mL solution and the solution was left at room temperature for 30 min; then 2 mM MgCl2 and 2 mM EGTA were added and the obtained system was left at room temperature for 40 min; • Smooth muscle SI fragment (#CS-MYS05, Cytoskeleton) was diluted with a pre-cooled PM12 buffer containing 1 mM DTT (12 mM Pipes-KOH solution, PH=7.0, containing 2 mM MgCl2) to form a 0.7 mg/mL solution; • ATP (#BSA04-001, Cytoskeleton) was diluted to 5 mM working solution with 15 mM Tris-HCL (PH=7.5); • 2. […] Experimental steps: • adding 10 μL of compound working solution+6 μL of F-actin polymer+4 μL of Smooth muscle Si fragment solution to the compound wells; • adding 10 μL of PM12 buffer containing DMSO+6 μL of F-actin polymer+4 μL of Smooth muscle S1 fragment solution to positive control wells; • adding 10 μL of PM12 buffer containing DMSO+6 μL of F-actin polymer+4 μL of PM12 buffer to negative control wells; • adding […] of 5 mM ATP working solution to all test wells to start the reaction, gently mixing and incubating at 37° C. for 20 min; • after the reaction was completed, taking 6 μLL of reaction liquid, adding 24 μL of PM12 buffer for 5-fold dilution, then detecting the content of the product Pi with a phosphate kit (#BK054, Cytoskeleton); • adding a standard according to the instructions, adding 70 μL of CytoPhos Reagent (#BK054, Cytoskeleton) to all wells and incubating at room temperature for 10 min before detection. • 4. Detection: • the OD value of each well was detected at 650 nm. The standard curve was fitted according to Pi standard concentration and OD value, and the Pi concentration of each test well was obtained. Inhibition (%)=(positive control well−test well)/positive control well*100%.

[4] = inhibition of hydrolysis of ATP, class symbols, read-out: Rabbit skeletal muscle myosin (IC50)
[5] = read-out: IC50 for inhibition of hydrolysis of ATP by rabbit skeletal muscle myosin

T2 sequence (P10587 84-789 limits assumed): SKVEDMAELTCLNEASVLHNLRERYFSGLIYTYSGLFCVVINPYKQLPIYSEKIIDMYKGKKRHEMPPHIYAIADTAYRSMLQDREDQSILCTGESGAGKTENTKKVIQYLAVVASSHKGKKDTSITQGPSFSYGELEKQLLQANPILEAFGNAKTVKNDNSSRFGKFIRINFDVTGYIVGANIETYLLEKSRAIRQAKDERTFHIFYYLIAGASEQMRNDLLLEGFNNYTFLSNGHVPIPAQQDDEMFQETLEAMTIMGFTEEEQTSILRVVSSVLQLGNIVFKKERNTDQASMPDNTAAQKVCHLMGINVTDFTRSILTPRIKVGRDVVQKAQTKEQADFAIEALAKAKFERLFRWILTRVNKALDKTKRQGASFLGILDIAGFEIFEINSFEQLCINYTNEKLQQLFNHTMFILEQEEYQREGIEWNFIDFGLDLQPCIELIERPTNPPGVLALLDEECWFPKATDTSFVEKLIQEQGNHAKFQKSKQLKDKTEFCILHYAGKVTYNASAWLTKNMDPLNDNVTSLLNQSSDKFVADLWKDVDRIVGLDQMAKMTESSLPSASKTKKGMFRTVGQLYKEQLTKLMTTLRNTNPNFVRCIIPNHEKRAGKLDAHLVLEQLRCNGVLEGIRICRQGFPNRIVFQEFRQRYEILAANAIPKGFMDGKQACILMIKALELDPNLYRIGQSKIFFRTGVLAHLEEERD
T2 sequence (P02607 whole entry partner, the tested form may be a part): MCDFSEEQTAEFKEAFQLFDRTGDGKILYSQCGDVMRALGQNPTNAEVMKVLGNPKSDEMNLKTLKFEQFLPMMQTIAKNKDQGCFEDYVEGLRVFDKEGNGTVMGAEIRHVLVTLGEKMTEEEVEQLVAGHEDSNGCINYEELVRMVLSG
T1 sequence (Q9BE39 whole entry): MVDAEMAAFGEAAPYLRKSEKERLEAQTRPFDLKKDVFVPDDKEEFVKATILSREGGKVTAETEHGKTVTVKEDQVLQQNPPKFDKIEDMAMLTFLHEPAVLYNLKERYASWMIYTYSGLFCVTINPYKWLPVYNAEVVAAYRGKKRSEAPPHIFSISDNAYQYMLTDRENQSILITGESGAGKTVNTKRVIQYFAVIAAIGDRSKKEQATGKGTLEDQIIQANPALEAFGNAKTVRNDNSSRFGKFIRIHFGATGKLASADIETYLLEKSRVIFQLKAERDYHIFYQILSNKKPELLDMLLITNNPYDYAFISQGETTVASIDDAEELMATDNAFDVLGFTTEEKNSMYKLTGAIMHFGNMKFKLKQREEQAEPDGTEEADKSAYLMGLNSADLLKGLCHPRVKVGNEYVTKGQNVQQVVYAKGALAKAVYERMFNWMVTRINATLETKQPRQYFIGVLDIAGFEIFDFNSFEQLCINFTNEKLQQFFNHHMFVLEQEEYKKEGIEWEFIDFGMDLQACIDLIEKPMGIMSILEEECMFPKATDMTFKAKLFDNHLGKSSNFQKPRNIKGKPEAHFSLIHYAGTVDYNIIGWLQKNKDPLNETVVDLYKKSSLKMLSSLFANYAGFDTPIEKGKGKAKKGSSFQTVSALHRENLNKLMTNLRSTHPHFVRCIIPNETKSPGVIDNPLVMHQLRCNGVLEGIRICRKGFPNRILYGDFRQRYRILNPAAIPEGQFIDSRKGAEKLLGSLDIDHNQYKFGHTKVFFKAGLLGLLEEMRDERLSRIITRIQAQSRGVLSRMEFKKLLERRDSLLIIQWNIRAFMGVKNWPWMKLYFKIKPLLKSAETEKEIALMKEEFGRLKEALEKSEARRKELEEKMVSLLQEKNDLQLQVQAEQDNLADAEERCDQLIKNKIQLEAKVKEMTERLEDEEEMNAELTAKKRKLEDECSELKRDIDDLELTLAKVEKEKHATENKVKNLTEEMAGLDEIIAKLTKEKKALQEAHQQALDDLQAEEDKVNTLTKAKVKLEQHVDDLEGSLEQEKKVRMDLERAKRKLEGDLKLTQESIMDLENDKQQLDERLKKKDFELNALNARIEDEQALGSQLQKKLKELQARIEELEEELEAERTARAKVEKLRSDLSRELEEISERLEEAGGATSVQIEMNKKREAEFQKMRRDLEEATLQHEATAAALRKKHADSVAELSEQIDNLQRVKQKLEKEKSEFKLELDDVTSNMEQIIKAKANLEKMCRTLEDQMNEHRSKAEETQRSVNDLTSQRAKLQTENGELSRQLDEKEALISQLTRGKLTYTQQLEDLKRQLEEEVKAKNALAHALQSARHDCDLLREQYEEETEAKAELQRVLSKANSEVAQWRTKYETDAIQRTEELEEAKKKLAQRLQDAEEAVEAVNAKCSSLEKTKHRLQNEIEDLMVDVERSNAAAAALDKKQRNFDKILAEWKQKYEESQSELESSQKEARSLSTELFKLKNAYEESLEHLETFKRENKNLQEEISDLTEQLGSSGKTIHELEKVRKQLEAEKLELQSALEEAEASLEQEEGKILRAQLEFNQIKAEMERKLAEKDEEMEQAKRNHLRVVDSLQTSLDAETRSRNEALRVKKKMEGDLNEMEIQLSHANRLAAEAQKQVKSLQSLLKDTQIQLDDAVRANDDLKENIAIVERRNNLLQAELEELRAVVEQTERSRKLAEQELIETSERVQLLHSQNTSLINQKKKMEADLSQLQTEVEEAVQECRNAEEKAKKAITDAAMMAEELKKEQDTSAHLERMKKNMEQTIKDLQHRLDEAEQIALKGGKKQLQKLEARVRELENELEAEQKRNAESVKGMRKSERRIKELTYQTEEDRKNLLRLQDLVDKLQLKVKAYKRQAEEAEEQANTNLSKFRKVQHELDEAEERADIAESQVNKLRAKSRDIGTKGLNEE
T1 sequence (P85100 whole entry partner): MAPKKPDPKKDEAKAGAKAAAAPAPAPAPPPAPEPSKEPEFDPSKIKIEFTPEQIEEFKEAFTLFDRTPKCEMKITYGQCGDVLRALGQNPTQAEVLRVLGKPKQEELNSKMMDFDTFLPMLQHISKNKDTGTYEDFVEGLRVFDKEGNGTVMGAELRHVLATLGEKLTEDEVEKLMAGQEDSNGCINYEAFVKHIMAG
T1 sequence (Q3SZE5 whole entry partner): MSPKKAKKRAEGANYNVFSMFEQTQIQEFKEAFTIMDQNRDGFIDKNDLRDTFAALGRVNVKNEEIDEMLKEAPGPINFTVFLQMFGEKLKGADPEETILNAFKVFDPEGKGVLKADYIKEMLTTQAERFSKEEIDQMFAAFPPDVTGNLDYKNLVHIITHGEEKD

Compound	IC50 [1, 4]	IC50 [1, 5]	inhibition at 100 µM [2]	inhibition at 100 µM ([3]; 100 μM compound)	inhibition at 50 µM [3]	Cardiac myosin SII (Inhibition @ 100 μM) [2]	Smooth muscle myosin S1 (Inhibition @ 100 μM) ([3]; 100 μM compound, 100 µM)
O=c1cc2c(nn1Cc1ccc3c(c1)CC3)-c1cnc(OCC(F)(F)F)nc1CC2 [Compound 102]	< 2.5 µM	0.4 µM	-5%	-2%			
O=c1ccc(-c2cnc(OCC(F)(F)F)nc2)nn1Cc1ccc2c(c1)CCCC2(F)F [Compound 89]	2.5 to 20 µM		13.7%	17.6%			
O=c1ccc(-c2cnc(O[C@@H]3CCOC3)nc2)nn1Cc1ccc2c(c1)CCC2 [Compound 126]	< 2.5 µM	0.5 µM	7%	7%			
O=c1ccc(-c2cnc(C3CCC3)nc2)nn1Cc1ccc2c(c1)CC2 [Compound 109]	< 2.5 µM	0.1 µM	9.7%	-3.5%			
O=c1ccc(-c2cnc(Oc3nccs3)nc2)nn1Cc1ccc2c(c1)CCC2 [Compound 130]	2.5 to 20 µM		3%	2%			
O=c1ccc(-c2cnc(OCC3(F)CCC3)nc2)nn1Cc1ccc2c(c1)CCC2 [Compound 113]	< 2.5 µM		0%	-13%			
O=c1cc2c(nn1Cc1ccc3c(c1)CC3)-c1cnc(Oc3cncc(F)c3)nc1CC2 [Compound 112]	< 2.5 µM		2%	-9%			
O=c1ccc(-c2cnc(OC3CC3)nc2)nn1Cc1ccc2c(c1)CCC2 [Compound 84]	< 2.5 µM		-3.8%		20.2%		
O=C1CCc2cc(F)c(Cn3nc(-c4cnc(OCC(F)(F)F)nc4)ccc3=O)cc21 [Compound 136]	< 2.5 µM		-7%	-4%			
O=c1ccc(-c2cnc(OCCCF)nc2)nn1Cc1ccc2c(c1)CCC2 [Compound 71]	< 2.5 µM		21%				
O=c1ccc(-c2cnc(OCC3CC3(F)F)nc2)nn1Cc1ccc2c(c1)CCC2 (stereo not drawn) [Compound 81]	< 2.5 µM		-5.6%		10.9%		
O=c1ccc(-c2cnc(OCC(F)(F)F)nc2)nn1Cc1ccc2c(c1)CC1CC21 (stereo not drawn) [Compound 156]	< 2.5 µM	0.9 µM	7%	-11%			
O=c1ccc(-c2cnc(OCC(F)(F)F)nc2)nn1Cc1ccc2c(c1)CC1CC21 (stereo not drawn) [Compound 161]	< 2.5 µM	0.5 µM				5%	
O=C1CCc2c(Cl)cc(Cn3nc(-c4cnc(OCC(F)(F)F)nc4)ccc3=O)cc21 [Compound 166]	< 2.5 µM		17%	6%			
O=c1ccc(-c2cnc(OCC3CC3)nc2)nn1Cc1ccc2c(c1)CCC2 [Compound 80]	< 2.5 µM	0.5 µM	-17.8%		9.3%		
O=c1ccc(-c2cnc(OC3CCC(F)(F)CC3)nc2)nn1Cc1ccc2c(c1)CC2 [Compound 96]	2.5 to 20 µM		-9%				

Compound	IC50 [1, 4]	IC50 [1, 5]	inhibition at 100 µM [2]	inhibition at 100 µM ([3]; 100 μM compound)	inhibition at 50 µM [3]	Cardiac myosin SII (Inhibition @ 100 μM) [2]	Smooth muscle myosin S1 (Inhibition @ 100 μM) ([3]; 100 μM compound, 100 µM)
O=c1ccc(-c2cnc(OCC(F)(F)F)nc2)nn1Cc1ccc2c(c1)C1CC1C2 (stereo not drawn) [Compound 140]	< 2.5 µM	0.8 µM				−6%	2%
O=c1ccc(-c2cnc(Oc3cncc(F)c3)nc2)nn1Cc1ccc2c(c1)CCC2 [Compound 115]	< 2.5 µM		3%	3%			
O=c1ccc(-c2cnc(OCC(F)F)nc2)nn1Cc1ccc2c(c1)CCC2 [Compound 67]	< 2.5 µM		2%	3%			
O=C1CCc2ccc(Cn3nc(-c4cnc(Oc5cncc(C(F)(F)F)c5)nc4)ccc3=O)cc21 [Compound 142]	2.5 to 20 µM		-8%	2%			
O=c1ccc(-c2cnc(OCC(F)(F)F)nc2)nn1Cc1ccc2c(c1)C(F)(F)CC2 [Compound 93]	< 2.5 µM	0.7 µM	-16%	-14%			
O=c1ccc(-c2cnc(C3CC(F)(F)C3)nc2)nn1Cc1ccc2c(c1)CCC2 [Compound 127]	< 2.5 µM		8%	-6%			
O=C1CCc2ccc(Cn3nc(-c4cnc(OCC(F)(F)F)nc4)ccc3=O)c(F)c21 [Compound 152]	< 2.5 µM			-5%			
O=c1ccc(-c2cnc(OC3CCOCC3)nc2)nn1Cc1ccc2c(c1)CC2 [Compound 95]	2.5 to 20 µM		2%	-2%			
N#CC1(COc2ncc(-c3ccc(=O)n(Cc4ccc5c(c4)CCC5)n3)cn2)CC1 [Compound 105]	< 2.5 µM	0.9 µM	16%	16%			
O=c1ccc(-c2cnc(OCC(F)(F)F)nc2)nn1Cc1ccc2c(c1)C=CC2 [Compound 137]	< 2.5 µM	0.3 µM		11%			
O=c1ccc(-c2cnc(OCCCCl)nc2)nn1Cc1ccc2c(c1)CC2 [Compound 70]	< 2.5 µM		18%				
O=c1ccc(-c2cnc(OCCCF)nc2)nn1Cc1ccc2c(c1)CC2 [Compound 69]	< 2.5 µM	0.1 µM	19%				
O=c1ccc(-c2cnc(Oc3cncc(Cl)c3)nc2)nn1Cc1ccc2c(c1)CCC2 [Compound 132]	< 2.5 µM	0.4 µM	1%				
O=c1ccc(-c2cnc(OCCF)nc2)nn1Cc1ccc2c(c1)CCC2 [Compound 75]	< 2.5 µM	0.5 µM					
O=c1ccc(-c2cnc(OCC(F)F)nc2)nn1Cc1ccc2c(c1)CC2 [compound 60]	< 2.5 µM	0.1 µM					
O=C1CCc2ccc(Cn3nc(-c4cnc(Oc5ccc(F)cn5)nc4)ccc3=O)cc21 [Compound 146]	2.5 to 20 µM						
